Measured values published in US4191808A, “Method of measuring dipeptidyl-amino-peptidase activity” (Ajinomoto Co., Inc., priority 1975, dated 1980).
Peptide text beside a SMILES is read from it. * marks the point of attachment. pNA = O=[N+]([O-])c1ccc(N*)cc1

How the values were obtained:
[1] = biological target: T1, X-prolyl dipeptidyl-aminopeptidase in human serum (Homo sapiens, UniProt P27487); assay: Azo-coupling assay of substrate hydrolysis (548 nm) with human serum as enzyme source; type: biochemical; conditions: 37° C., 30 minutes, pH 8.7
T1 construct: Even if crude enzyme such as human serum is used as enzyme source, the activity is accurately measured; from tissue; host or cells: human serum (normal subjects and patients)
T1 sequence (P27487 39-766 limits assumed): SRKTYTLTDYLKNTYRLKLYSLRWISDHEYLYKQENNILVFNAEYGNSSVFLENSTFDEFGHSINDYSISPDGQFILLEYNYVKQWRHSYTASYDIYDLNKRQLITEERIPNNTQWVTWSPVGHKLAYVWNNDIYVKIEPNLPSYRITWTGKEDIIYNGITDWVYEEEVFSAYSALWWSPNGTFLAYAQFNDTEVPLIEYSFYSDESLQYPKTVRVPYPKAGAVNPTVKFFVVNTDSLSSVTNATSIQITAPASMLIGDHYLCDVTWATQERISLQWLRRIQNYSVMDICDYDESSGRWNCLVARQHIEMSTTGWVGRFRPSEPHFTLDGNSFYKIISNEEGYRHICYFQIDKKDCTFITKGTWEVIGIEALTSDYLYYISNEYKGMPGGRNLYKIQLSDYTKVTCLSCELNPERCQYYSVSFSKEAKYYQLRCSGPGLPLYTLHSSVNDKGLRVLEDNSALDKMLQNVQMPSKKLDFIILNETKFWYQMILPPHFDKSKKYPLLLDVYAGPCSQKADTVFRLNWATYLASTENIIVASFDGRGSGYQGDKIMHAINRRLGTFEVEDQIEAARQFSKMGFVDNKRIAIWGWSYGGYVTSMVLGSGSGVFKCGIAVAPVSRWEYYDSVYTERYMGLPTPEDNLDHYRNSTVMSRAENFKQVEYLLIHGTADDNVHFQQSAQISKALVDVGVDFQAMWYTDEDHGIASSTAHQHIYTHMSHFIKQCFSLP
Experimental: The relation between the amount of enzyme and the amount of substrate hydrolyzed was examined, glycyl-L-proline p-nitroanilide tosylate and human serum being used as substrate and enzyme source, respectively, and the assay of the substrate hydrolyzed being carried out by the following azo-coupling method.
The following tubes were prepared: (1) the experimental tube contained 1.0 ml of 0.15 M glycine-NaOH buffer (pH 8.7), 1.0 ml of the substrate solution prepared in Example 22, and the volume listed in table 2 of human serum.
(2) the control tube contained 1.0 ml of the glycine-NaOH buffer, and 1.0 ml of the substrate solution.
Both experimental and control tubes were incubated at 37° C. for 30 minutes, and 0.1 ml of the serum was added to the control tube. The reaction was stopped by adding 0.4 ml of 30% perchloric acid aqueous solution. After centrifuging at 3000 rpm for 10 minutes, each 0.5 ml of the supernatant was transferred to another tube; besides 0.1 ml of […] p-nitroaniline aqueous solution and 2.4 ml of 30% perchloric acid solution were added to the standard tube, and 2.5 ml of the perchloric acid solution was added to the blank tube.
To all the four tubes, 0.5 ml of 0.2% sodium nitrite aqueous solution at 4° C., and they were kept at 4° C. for 10 minutes. Then, 0.5 ml of freshly prepared 0.5% ammonium sulfamate aqueous solution was added. After 2 minutes, 1.0 ml of 0.05% N-(1-naphthyl) ethylenediamine solution was added and the mixtures were incubated at 37° C. for 30 minutes in the dark.
A photometer was adjusted to zero with the blank, and the absorbances of the experimental (E), control (C), and standard (S) were read at 548 nm.
p-Nitroaniline formed enzymically was calculated by the equation: [formula] the volume of […] p-nitroaniline aqueous solution used in the standard tube (ml)).

[2] = Time for perfect dissolution in water with stirring; type: physicochemical; conditions: 0.23 mg in 100 ml water with stirring
Experimental: 0.23 mg of crystalline glycyl-L-proline p-nitroanilide tosylate was dissolved in 100 ml water with stirring. It took ca. 30 minutes at 20° C. and ca. 18 minutes at 30° C. for perfect dissolution.
On the other hand, 0.23 mg of porous glycyl-L-proline p-nitroanilide tosylate, which was prepared by freezing […]. mole aqueous solution of the same at -40° C. and then drying the freezed solid at 0.05 mmHg, was dissolved in 100 ml water with stirring as in the above procedure. It only took ca. 10 seconds at 20° C. and ca. 5 seconds at 30° C. for perfect dissolution.

[3] = biological target: T1, X-prolyl dipeptidyl-aminopeptidase in human serum; assay: Direct photometric assay of substrate hydrolysis (p-nitroaniline liberated, 385 nm) with human serum as enzyme source; type: biochemical; conditions: for Enzyme activity (μmole/min/1 serum ± S.E.): 3 cases; for Relative enzyme activity (%) Human serum pH 7.0: pH 7.0, 0.15 M Tris-maleate buffer; for Relative enzyme activity (%) Human serum pH 7.0 / Relative enzyme activity (%) Human serum pH 8.7: glycyl-L-proline p-nitroanilide = 100; for Relative enzyme activity (%) Human serum pH 8.7: pH 8.7, 0.15 M glycine-NaOH buffer
Experimental: The relation between the incubation time and the amount of substrate hydrolyzed was examined, glycyl-L-proline p-nitroanilide and human serum being used as substrate and enzyme source, respectively, and the assay of the substrate hydrolyzed was carried out by the following direct photometric method.
Glycyl-L-proline p-nitroanilide tosylate was dissolved in 2% non-ionic detergent (Nikkol NP-10; Nikko Chemicals, Osaka, Japan) aqueous solution in a concentration of 3 mM to prepare the substrate solution. The following four tubes were prepared:
(1) the experimental tube contained 0.5 ml of 0.15 M glycine-NaOH buffer (pH 8.7), 0.5 ml of the substrate solution, and 0.05 ml of human serum
(2) the blank tube contained 0.5 ml of the 0.15 M glycine-NaOH buffer, 0.5 ml of the substrate solution and 0.05 ml of water.
(3) the standard tube contained 0.5 ml of the buffer, 0.5 ml of the substrate and 0.05 ml of 3 mM p-nitroaniline aqueous solution.
(4) the control tube contained 0.5 ml of the buffer and 0.5 ml of the substrate.
All tubes were incubated at 37° C. for the periods listed in Table 1, and the reaction was stopped by the addition of 3.0 ml of 1M acetate buffer (pH 4.2) to every tube. To the control tube, 0.05 ml of the human serum was added after stopping the reaction. A photometer was adjusted to zero with the blank, and the absorbances of the experimental (E), control (C), and standard (S) were read at 385 nm in a cuvette with 1 cm light path. p-Nitroaniline liberated by the enzyme reaction was calculated by the equation [formula]
(§1) 3mM substrate solutions were prepared as in Example 22, various dipeptide derivatives or salts thereof being used as substrates. The relative enzyme activities toward various substrates, and the rates and optimum pHs of hydrolysis of various substrates with the enzyme were measured as in Example 22.
(§2) ^c Activities were measured at pH 7.0 in 0.15 M Trismaleate buffer or
(§3) at pH 8.7 in 0.15 M glycineNaOH buffer. The values are the mean of
The activity of X-prolyl dipeptidyl-aminopeptidase was measured as in Example 22, glycyl-L-proline p-nitroanilide and 88 normal human sera being used as substrate and enzyme, respectively.
The activity of X-prolyl dipeptidyl-aminopeptidase was measured as in Example 22, glycyl-L-proline p-nitroanilide and human sera from patients being used as substrate and enzyme sources, respectively.
The activity of X-prolyl dipeptidyl-aminopeptidase was measured as in Example 22, various X-L-prolyl p-nitroanilides, and human sera from patients being used as substrates and enzyme sources, respectively.

[4] = tested on: purified human submaxillary enzyme (X-prolyl dipeptidyl-aminopeptidase); assay: Direct photometric assay of substrate hydrolysis with purified human submaxillary enzyme; type: biochemical; conditions: for Optimum pH: Tris-maleate, glycine-NaOH or amidiol buffer; for Relative enzyme activity (%) Purified human submaxillary enzyme pH 7.0: pH 7.0, 0.15 M Tris-maleate buffer, glycyl-L-proline p-nitroanilide = 100; for Km: pH 7.0, Tris-maleate buffer, mean of duplicate experiments
Experimental: as §1
^a Activities were measured in 0.15 M Trismaleate buffer at pH 5.6-8.
and in 0.15 M glycineNaOH buffer at pH 8.2-9.4, purified human
submaxillary enzyme being used. For Lalanyl-L-proline pnitroanilide,
amidiol buffer were used instead of glycine buffer, since glycine buffer
interfered the photometry at pH 9-10.
^b Km values were measured at 7.0 in Trismaleate buffer, purified
human submaxillary enzyme being used. The values are the mean of duplicat
as §2, §3
^d The purified enzyme was obtained by the following method; The
enzyme was solubilized from the microsomal fraction by autodigestion, and
subsequently purified by (NH4)2 SO4 fractionation followed
by Sephadex G200 chromatography.

[5] = human sera from patients, Gastric Cancer
[6] = human sera from patients, Hepatitis

Enzyme activity (μmole/min/1 serum ± S.E.) [3, 5]	Enzyme activity (μmole/min/1 serum ± S.E.) [3, 6]	Enzyme activity (μmole/min/1 serum ± S.E.) ([3]; human sera, Normal (control))	Relative enzyme activity (%) Human serum pH 7.0 ([3]; human serum)	Relative enzyme activity (%) Human serum pH 8.7 ([3]; human serum)	Optimum pH [4]	Relative enzyme activity (%) Purified human submaxillary enzyme pH 7.0 [4]	Km [4]	Structure (SMILES)	other results
								Cc1ccc(S(=O)(=O)O)cc1.NCC(=O)N1CCC[C@H]1C(=O)Nc1ccc([N+](=O)[O-])cc1 [glycyl-L-proline p-nitroanilide tosylate, Glycyl-L-proline p-nitroanilide tosylate] (H-Gly-Pro-pNA)	Amount of p-nitroaniline formed ([1]; volume of serum 0.01 ml): 14.24 n mole; Amount of p-nitroaniline formed ([1]; volume of serum 0.02 ml): 32.91 n mole; Amount of p-nitroaniline formed ([1]; volume of serum 0.03 ml): 45.89 n mole; Amount of p-nitroaniline formed ([1]; volume of serum 0.04 ml): 62.50 n mole; Amount of p-nitroaniline formed ([1]; volume of serum 0.05 ml): 82.44 n mole; Amount of p-nitroaniline formed ([1]; volume of serum 0.10 ml): 155.06 n mole; time for perfect dissolution ([2]; 20° C., listed as crystalline glycyl-L-proline p-nitroanilide tosylate): ca. 30 minutes; time for perfect dissolution ([2]; 30° C., listed as crystalline glycyl-L-proline p-nitroanilide tosylate): ca. 18 minutes
18.5 ± 1.9 μmole/min/1 serum	99.5 ± 17.0 μmole/min/1 serum	36.6 ± 9.6 μmole/min/1 serum	83%	75%	8.5-8.7	86%	14 µM	C[C@H](N)C(=O)N1CCC[C@H]1C(=O)Nc1ccc([N+](=O)[O-])cc1.Cl [L-alanyl-L-proline p-nitroanilide, L-Alanyl-L-proline p-nitroanilide hydrochloride] (H-Ala-Pro-pNA)	
13.9 ± 1.3 μmole/min/1 serum	74.8 ± 17.6 μmole/min/1 serum	27.5 ± 7.5 μmole/min/1 serum	54%	37%	8.5-8.7	58%	23 µM	N[C@@H](CCC(=O)O)C(=O)N1CCC[C@H]1C(=O)Nc1ccc([N+](=O)[O-])cc1 [L-glutamyl-L-proline p-nitroanilide, L-Glutamyl-L-proline p-nitroanilide] (H-Glu-Pro-pNA)	
								Br.O=C(Nc1ccc([N+](=O)[O-])cc1)[C@@H]1CCCN1 [L-proline p-nitroanilide, L-Proline p-nitroanilide hydrobromide, reference compound]	rate of hydrolysis by human serum, as % of hydrolysis of glycyl-L-proline p-nitroanilide ([3]; human serum): 0.7%
								Cc1ccc(S(=O)(=O)O)cc1.NCC(=O)N1CCC[C@H]1C(=O)Nc1ccc([N+](=O)[O-])cc1 [glycyl-L-proline p-nitroanilide tosylate] (H-Gly-Pro-pNA)	time for perfect dissolution ([2]; 20° C., tosylate): ca. 10 seconds; time for perfect dissolution ([2]; 30° C., tosylate): ca. 5 seconds
17.6 ± 1.6 μmole/min/1 serum	102.5 ± 17.5 μmole/min/1 serum	37.7 ± 9.0 μmole/min/1 serum	34%	28%	8.5-8.7	37%	81 µM	N[C@@H](CC(=O)O)C(=O)N1CCC[C@H]1C(=O)Nc1ccc([N+](=O)[O-])cc1 [L-aspartyl-L-proline p-nitroanilide, L-Aspartyl-L-proline p-nitroanilide] (H-Asp-Pro-pNA)	

Structure (SMILES)	Enzyme activity (μmole/min/1 serum ± S.E.) [3, 5]	Enzyme activity (μmole/min/1 serum ± S.E.) [3, 6]	Enzyme activity (μmole/min/1 serum ± S.E.) ([3]; human sera, Normal (control))	Relative enzyme activity (%) Human serum pH 7.0 ([3]; human serum)	Relative enzyme activity (%) Human serum pH 8.7 ([3]; human serum)	Optimum pH [4]	Relative enzyme activity (%) Purified human submaxillary enzyme pH 7.0 [4]	Km [4]	other results
Cc1ccc(S(=O)(=O)O)cc1.Cc1ccc(S(=O)(=O)O)cc1.N=C(N)NCCC[C@H](N)C(=O)N1CCC[C@H]1C(=O)Nc1ccc([N+](=O)[O-])cc1 [L-arginyl-L-proline p-nitroanilide, L-Arginyl-L-proline p-nitroanilide ditosylate] (H-Arg-Pro-pNA)	6.0 ± 0.7 μmole/min/1 serum	35.5 ± 6.8 μmole/min/1 serum	13.8 ± 3.6 μmole/min/1 serum	86%	55%	7.8-8.0	94%	230 µM	
Cc1ccc(S(=O)(=O)O)cc1.Cc1ccc(S(=O)(=O)O)cc1.NCCCC[C@H](N)C(=O)N1CCC[C@H]1C(=O)Nc1ccc([N+](=O)[O-])cc1 [L-lysyl-L-proline p-nitroanilide, L-Lysyl-L-proline p-nitroanilide ditosylate] (H-Lys-Pro-pNA)	8.2 ± 0.8 μmole/min/1 serum	49.7 ± 10.2 μmole/min/1 serum	18.2 ± 4.7 μmole/min/1 serum	122%	71%	8.5-8.7	121%	120 µM	
